In patent US8080529B2, “Macrolides with anti-inflammatory activity” (Glaxo Group Limited, priority 2005, dated 2011):
Where two headings read alike, the source gives them in different places.

How the values were obtained:
granulocytes [1] = format: in vitro ADME; settings: human, 180 min, 10 μM
Procedure: (§1) Granulocytes were obtained from heparinized whole blood using density gradiant centrifugation. Erythrocytes were sedimented on 3% dextran T-500 (Amersham Pharmacia Biotech AB, Uppsala, Sweden). Leukocytes were centrifuged on Ficoll (Amersham Pharmacia Biotech AB, Uppsala, Sweden) for 35 min at 600 g at 20° C. The pellet of granulocytes was cleared from remaining erythrocytes by a brief hypotonic lysis.
7.5×10^6 granulocytes, isolated as described above, were suspended in 3 mL of RPMI 1640 (Institute of Immunology, Croatia) containing 10 μM of tested macrolide. Samples were incubated at 37° C. for 180 min. Following incubation, the samples were centrifuged through the layer of Poly(dimethylsiloxane-co-diphenylsiloxane), dihydroxy terminated-silicone oil (Aldrich Chemical Company, Milwaukee, USA). The pellet was resuspended in 0.5% Triton X-100 (Sigma, St. Louis, USA) in deionized water (MilliQ, Millipore Corporation, Bedford, USA). The suspension was sonicated, proteins were precipitated with acetonitrile, and the concentration of macrolide in the supernatants was determined by liquid chromatography-mass spectrometry (LC-MS).
Intracellular concentrations of the test compounds were calculated from the mean cell number recovered after centrifuging through silicone oil. According to the literature, about 1 million neutrophils is considered to have a volume of 0.24 μL (Vazifeh et al., Antimicrob Agents Chemo. 1997; 41: 2099-2107). To estimate the extent of macrolide accumulation, the intracellular to extracellular concentration ratio (I/E) was calculated, where E (due to a large volume of incubation medium) was taken as constant (10 μM). Results are expressed relative to azithromycin according to the following equation: % of azithromycin uptake =(I/E of a substance/I/E of azithromycin)×100. I/E values obtained for azithromycin were 164±10.

neutrophils = assay: Lung neutrophilia induced by bacterial lipopolysaccharide in male BALB/cJ mice: cells in BALF and lung tissue; format: in vivo; settings: 5 mg i.p.; 24 hours after LPS
Procedure: (§2) Male BALB/cJ mice (Iffa Credo, France), with average weight 30 g were randomly grouped (n=7 in testing group, 8 in positive control, 7 in negative control). Mice were administered intraperitoneally (i.p.) a single dose of 5 or 2.5 mg of test compound. Two hours after administration, 2 μg of bacterial lipopolysaccharide (LPS), dissolved in PBS in a volume of 60 μL, was intranasally administered to all experimental groups except the negative control group, which received the same volume (60 μL) of vehicle PBS. Animals were sacrificed approximately 24 hours after application of LPS in order to obtain bronchoalveolar lavage fluid (BALF), which was used to determine concentrations of IL-6 and TNF-α, absolute number of cells, and the percentage of neutrophils in BALF. Results are expressed as percentage of decrease of total cell number, relative number of neutrophils, and TNF-α, and IL-6 concentration in BALF of treated animals compared to positive control (LPS stimulated, but untreated animals).
(§3) Results are expressed as percentage of decrease of total cell number, relative number of neutrophils, and TNF-alpha and IL-6 concentration in BALF of treated animals compared to positive control (LPS stimulated, but untreated animals).
Besides accumulation of inflammatory cells in BALF, the extent and anatomic site of pulmonary inflammation induced by LPS was assessed 24 hours after PBS or LPS exposure. Accumulation of granulocytes and mononuclear cells in peribronchial (PB) and perivascular (PV) lung tissue areas and in alveolar spaces was monitored following sacrifice of the animals.

IL-6 = assay: Lung neutrophilia induced by bacterial lipopolysaccharide in male BALB/cJ mice: IL-6 in BALF; format: in vivo; settings: 5 mg i.p.; 24 hours after LPS
Procedure: as §2, §3

TNF-α = assay: Lung neutrophilia induced by bacterial lipopolysaccharide in male BALB/cJ mice: TNF-α in BALF; format: in vivo; settings: 5 mg i.p.; 24 hours after LPS
Procedure: as §2, §3

IL-2 = assay: Inhibition of IL-2 production by PHA-stimulated human PBMC in vitro; format: cell-based; settings: Homo sapiens, 72 h, 3 days, read-out: Percentage of inhibition of IL-2 production
Procedure: (§4) Heparinized peripheral blood was obtained from healthy donors, and peripheral blood mononuclear cells (PBMC) were isolated by Histopaque 1077 (Sigma, USA) density centrifugation at 400×g for 30 minutes. Collected PBMC were centrifuged in plasma at 400×g for 10 min, resuspended and washed in RPMI 1640 (Institute of Immunology, Croatia) by centrifugation.
(§5) Peripheral blood mononuclear cells (PBMC), isolated as described above, were seeded in a 48-well plate at a concentration of 1×10^6 cells per well in the RPMI culture medium described above. Cells were stimulated with 10 μg/mL phytohaemagglutinin (PHA) (Sigma, USA) and incubated at 37° C., 5% CO2 in 90% humidity with tested compounds (10 and 50 μM) for 3 days. Cytokine concentrations were determined in supernatants by sandwich ELISA, using capture and detection antibodies (R&D, USA) according to the manufacturer's recommendations.
(§6) Inhibition (as percentage) was calculated using the following formula: % inhibition=(1−concentration of cytokines in sample/concentration of cytokines in positive control)×100.
(§7) The positive control refers to LPS-, PMA- or zymosan-stimulated samples that were not treated with test compounds.

granulocytes [2] = assay: Inhibition of degranulation of granulocytes (free neutrophil elastase activity); format: cell-based, human; settings: Homo sapiens, Neutrophil, read-out: Percentage of inhibition of degranulation of granulocytes; for inhibition at 10 µM: compound 10 μM; for inhibition at 50 µM: compound 50 μM
Procedure: as §1
1×10^6 granulocytes, isolated as described above, were resuspended in RPMI-1640 medium (Institute of Immunology, Croatia), and were incubated with 10 or 50 μM of test compound together with cytochalasine B (5 μg/mL) for 2 h at 37° C. Degranulation then was induced by the addition of 0.1 μM fMLP (Sigma, USA) or 0.5 μM A23187 (Calbiochem, USA). The activity of free neutrophil elastase was determined with a chromogenic substrate specific for human neutrophil elastase, such as N-(methoxysuccinyl)-L-alanyl-L-alanyl-L-prolyl-L-valine 4-nitroanilide (Sigma Chemical Company, St Louis, Mo., USA). Elastase activity, as a marker of primary granules, was assessed in supernatant using a spectrophotometer at an absorbance of 405 nm.
Results are expressed as the percent of inhibition of degranulation in unstimulated cells, and in stimulated cells treated with fMLP or A23187.

IL-5 = assay: Inhibition of IL-5 production by PHA-stimulated human PBMC in vitro; format: cell-based; settings: Homo sapiens, 72 h, 3 days, read-out: Percentage of inhibition of IL-5 production
Procedure: as §4, §5, §6, §7

LPS-induced septic shock = assay: Septic shock induced by bacterial lipopolysaccharide in male BALB/cJ mice; format: in vivo; settings: 24 hours
Procedure: Male BALB/cJ mice, (Iffa Credo, Lyon, France) 8 weeks old, weighing 25 g were randomly grouped (n=10 in testing groups and 15 in control group). Animals were primed with 4 μg bacterial lipopolysaccharide (LPS) that was dissolved in saline and administered i.pl. After 18-24 hours animals were challenged by an intravenous injection of 90 μg LPS in a volume of 0.2 mL. Animals were treated with the test compounds or the vehicle (control) intraperitoneally . . . or per os 30 min prior to each injection of LPS. Survival throughout 24 hours was monitored.

| SMILES | Uptake (% azithromycin) (granulocytes [1]) | % decrease of neutrophils in BALF (neutrophils) [%] | % decrease of total cell no. in BALF (neutrophils) [%] | Percentage of decrease of IL-6 concentration in BALF (IL-6) [%] | Percentage of decrease of TNF-α concentration in BALF (TNF-α) [%] | further results |
| --- | --- | --- | --- | --- | --- | --- |
| CC[C@H]1OC(=O)[C@H](C)[C@@H](O[C@H]2C[C@@](C)(OC)[C@@H](OC(=O)CCN(CC)CC)[C@H](C)O2)[C@H](C)[C@@H](O[C@@H]2O[C@H](C)C[C@H](N(C)C)[C@H]2O)[C@](C)(OC)C[C@@H](C)NC(=O)[C@H](C)[C@@H](O)[C@]1(C)O [Example 3, 4″-O-(3-Diethylamino-Propionyl)-6-O-methyl-8a-aza-8a-homoerythromycin A] | 15 |  |  |  |  |  |
| CC[C@H]1OC(=O)[C@H](C)[C@@H](O[C@H]2C[C@@](C)(OC)[C@@H](OC(=O)CCN(CC)CC)[C@H](C)O2)[C@H](C)[C@@H](O[C@@H]2O[C@H](C)C[C@H](N(C)C)[C@H]2O)[C@](C)(OC)C[C@@H](C)C(=O)[C@H](C)[C@H]2NC(=O)O[C@@]21C [Example 9, 11,12-Carbamate-11,12-dideoxy-4″-O-(3-diethylamino-propionyl)-6-O-methyl-erythromycin A] | 412 |  |  |  |  |  |
| CC[C@H]1OC(=O)[C@H](C)[C@@H](O[C@H]2C[C@@](C)(OC)[C@@H](OC(=O)CCN(C)C)[C@H](C)O2)[C@H](C)[C@@H](O[C@@H]2O[C@H](C)C[C@H](N(C)C)[C@H]2O)[C@](C)(OC)C[C@@H](C)C(=O)N[C@H](C)[C@@H](O)[C@]1(C)O [Example 12, 4″-O-(3-dimethylamino-propionyl)-6-O-methyl-9a-aza-9a-homoerythromycin A] |  | 46 | 88 | 45 | 87 |  |
| CC[C@H]1OC(=O)[C@H](C)[C@@H](O[C@H]2C[C@@](C)(OC)[C@@H](OC(=O)CCN(CC)CC)[C@H](C)O2)[C@H](C)[C@@H](O[C@@H]2O[C@H](C)C[C@H](N(C)C)[C@H]2O)[C@](C)(O)C[C@@H](C)CN(C)[C@H](C)[C@@H](O)[C@]1(C)O [Example 48, 4″-O-(3-diethylamino-propionyl)-azithromycin] | 125 | 66 | 79 | 9 | 85 |  |
| CC[C@H]1OC(=O)[C@H](C)C(O[C@H]2C[C@@](C)(OC)[C@@H](OC(=O)CCN(CC)CC)[C@H](C)O2)[C@H](C)[C@@H](O[C@@H]2O[C@H](C)C[C@H](N(C)C)[C@H]2O)[C@](C)(OC)C[C@@H](C)C(=O)[C@H](C)[C@H](O)[C@]1(C)O (stereo partly shown) [Example 49, 4″-O-(3-Diethylamino-propionyl)-6-O-methylerithromycin A] | >600 |  |  |  |  | inhibition at 10 µM (IL-2): 51%; inhibition at 50 µM (IL-2): 100%; inhibition at 10 µM (granulocytes [2]; A23187 0.5 μM): 10%; inhibition at 50 µM (granulocytes [2]; A23187 0.5 μM): 51%; inhibition at 10 µM (granulocytes [2]; fMLP 0.1 μM): 47%; inhibition at 50 µM (granulocytes [2]; fMLP 0.1 μM): 72%; inhibition at 10 µM (IL-5): 59%; inhibition at 50 µM (IL-5): 81% |
| CC[C@H]1OC(=O)[C@H](C)[C@@H](O[C@H]2C[C@@](C)(OC)[C@@H](OC(=O)CCN(CC)CC)[C@H](C)O2)[C@H](C)[C@@H](O[C@@H]2O[C@H](C)C[C@H](NC)[C@H]2O)[C@](C)(OC)C[C@@H](C)C(=O)N[C@H](C)[C@@H](O)[C@]1(C)O [Example 54, 3′-N-Demethyl-4″-O-(3-diethylaminopropionyl)-6-O-methyl-9a-aza-9a-homoerythromycin A] |  | 70 | 90 | 100 | 100 |  |
| CC[C@H]1OC(=O)[C@H](C)[C@@H](O[C@H]2C[C@@](C)(OC)[C@@H](O)[C@H](C)O2)[C@H](C)[C@@H](O[C@@H]2O[C@H](C)C[C@H](N(C)C)[C@H]2O)[C@](C)(O)C[C@@H](C)CN(C)[C@H](C)[C@@H](O)[C@]1(C)O [azithromycin, reference compound] | 100 | 37 | 77 | 72 | 66 | inhibition at 50 µM (granulocytes [2]; A23187 0.5 μM): 15%; inhibition at 50 µM (granulocytes [2]; fMLP 0.1 μM): 36%; Survival (%) (LPS-induced septic shock; 1 mg/kg p.o.): 30%; Survival (%) (LPS-induced septic shock; 10 mg/kg p.o.): 60%; Survival (%) (LPS-induced septic shock; 100 mg/kg p.o.): 70%; intracellular to extracellular concentration ratio (I/E) (granulocytes [1]): 164±10 |
| CC[C@H]1OC(=O)[C@H](C)[C@@H](O[C@H]2C[C@@](C)(OC)[C@@H](O)[C@H](C)O2)[C@H](C)[C@@H](O[C@@H]2O[C@H](C)C[C@H](N(C)C)[C@H]2O)[C@](C)(OC)C[C@@H](C)C(=O)[C@H](C)[C@@H](O)[C@]1(C)O [clarithromycin, reference compound] |  | 36 | 77 | 60 | 78 | inhibition at 10 µM (IL-2): 0%; inhibition at 50 µM (IL-2): 3%; inhibition at 10 µM (IL-5): 13%; inhibition at 50 µM (IL-5): 47% |
